Measured values reported in US20260132129A1 (Genesis Therapeutics, Inc., priority 2022, published 2026).

Molecular target: T1, PI3Kα H1047R (T47D cells) (Homo sapiens, UniProt P42336, H1047R)
T1 construct: endogenous in cells; host or cells: T47D cells
Experiment: PI3Kα cellular assay: pAKT HTRF in T47D cells after EGF stimulation
Type: cell-based
Details: for IC50: T47D cells (PI3Kα H1047R), pAKT S473 HTRF
Procedure, shortened: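 pAKT read by HTRF in lysates of EGF-stimulated (20 ng/mL, 10 min) T47D H1047R cells. Before stimulation, serum-starved cells (16 h) received compound for 1 h at 37 °C, dosed from 10,000 nM down to 0.5 nM in 3-fold steps.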

[1] = 1 hr compound, 20 ng/ml EGF 10 min
[2] = selectivity T47D (H1047R) over SKBR3 (WT), pAKT HTRF
[3] = selectivity of T47D (H1047R) over SKBR3 (WT) pAKT IC50

T1 sequence (P42336 whole entry H1047R): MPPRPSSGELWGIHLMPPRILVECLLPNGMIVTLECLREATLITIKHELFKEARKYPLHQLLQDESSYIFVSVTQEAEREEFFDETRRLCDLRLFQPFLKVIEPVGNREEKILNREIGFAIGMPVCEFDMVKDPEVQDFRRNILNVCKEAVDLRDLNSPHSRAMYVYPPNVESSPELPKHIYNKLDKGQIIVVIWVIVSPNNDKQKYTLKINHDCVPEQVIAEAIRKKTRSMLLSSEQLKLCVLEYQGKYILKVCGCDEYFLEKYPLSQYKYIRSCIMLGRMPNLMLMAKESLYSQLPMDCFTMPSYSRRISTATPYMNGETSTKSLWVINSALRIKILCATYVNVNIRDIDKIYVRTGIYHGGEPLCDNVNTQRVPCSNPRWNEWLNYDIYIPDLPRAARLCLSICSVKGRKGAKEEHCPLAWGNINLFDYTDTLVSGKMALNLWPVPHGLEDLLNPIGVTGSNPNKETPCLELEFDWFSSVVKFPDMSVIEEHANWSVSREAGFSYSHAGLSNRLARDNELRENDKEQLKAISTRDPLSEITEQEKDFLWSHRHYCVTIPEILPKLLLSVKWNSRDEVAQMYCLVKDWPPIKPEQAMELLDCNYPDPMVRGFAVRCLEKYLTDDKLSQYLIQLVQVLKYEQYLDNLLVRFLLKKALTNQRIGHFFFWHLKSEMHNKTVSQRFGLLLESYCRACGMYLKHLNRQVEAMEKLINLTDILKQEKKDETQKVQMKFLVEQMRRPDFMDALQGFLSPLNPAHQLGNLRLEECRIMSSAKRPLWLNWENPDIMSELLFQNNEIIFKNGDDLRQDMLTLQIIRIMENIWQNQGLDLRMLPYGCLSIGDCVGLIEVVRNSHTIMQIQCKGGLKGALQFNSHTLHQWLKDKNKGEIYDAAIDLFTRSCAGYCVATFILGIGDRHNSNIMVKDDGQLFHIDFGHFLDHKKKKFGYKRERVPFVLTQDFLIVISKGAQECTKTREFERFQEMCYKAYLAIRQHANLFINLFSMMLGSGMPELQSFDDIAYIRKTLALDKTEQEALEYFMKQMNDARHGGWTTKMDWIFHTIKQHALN
T1 sequence (P27986 whole entry partner): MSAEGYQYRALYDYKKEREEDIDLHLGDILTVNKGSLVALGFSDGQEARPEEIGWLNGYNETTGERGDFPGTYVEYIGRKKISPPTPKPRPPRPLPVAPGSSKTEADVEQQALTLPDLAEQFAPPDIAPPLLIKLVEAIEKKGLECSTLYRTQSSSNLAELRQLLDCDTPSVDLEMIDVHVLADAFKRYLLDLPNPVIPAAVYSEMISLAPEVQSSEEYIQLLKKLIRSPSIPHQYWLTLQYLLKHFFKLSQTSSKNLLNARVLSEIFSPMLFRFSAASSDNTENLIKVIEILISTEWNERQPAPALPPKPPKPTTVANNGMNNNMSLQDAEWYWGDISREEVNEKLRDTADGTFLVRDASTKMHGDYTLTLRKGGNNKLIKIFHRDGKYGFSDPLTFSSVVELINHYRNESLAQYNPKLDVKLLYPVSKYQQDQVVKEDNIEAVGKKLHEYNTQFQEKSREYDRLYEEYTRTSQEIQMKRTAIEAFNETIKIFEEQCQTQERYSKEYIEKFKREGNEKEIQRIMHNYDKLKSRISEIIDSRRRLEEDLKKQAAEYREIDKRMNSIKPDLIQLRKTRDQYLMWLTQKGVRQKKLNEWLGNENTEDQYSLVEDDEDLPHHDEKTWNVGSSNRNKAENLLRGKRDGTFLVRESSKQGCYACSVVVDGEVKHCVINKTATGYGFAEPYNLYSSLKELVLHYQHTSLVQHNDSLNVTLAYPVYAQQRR

`CNC1=NC2C=C(c3cc(=O)n4cc(C)cc(C(C)Nc5ccccc5C(=O)O)c4n3)C=CC2=C1` (stereo not drawn) [Compound 577] was tested, and the IC50 [1] was 100 to 500 nM and the “T47D pAKT S473 HTRF IC50 (H1047R): T47D (H1047R) selectivity over SKBR3 (WT)” value [2] was “A (A denotes >20-fold)”.
`CC(=O)N=S(C)(=O)c1ccccc1N[C@H](C)c1cc(C)cn2c(=O)cc(N3CCOCC3)nc12` (stereo partly drawn) [Compound 827] was tested, and the IC50 (EGF stimulation) was > 2000 nM and the “T47D pAKT S473 HTRF IC50 (H1047R): T47D (H1047R) selectivity over SKBR3 (WT)” value [3] was “C (C denotes ≤5-fold)”.
With `Cc1cc(C(C)Nc2cccnc2C(=O)O)c2nc(-c3ccnc(C4CC4)c3)c(C)c(=O)n2c1` (stereo not drawn) [Compound 1241] the IC50 (EGF stimulation) was > 2000 nM and the “T47D pAKT S473 HTRF IC50 (H1047R): T47D (H1047R) selectivity over SKBR3 (WT)” value [2] was “A (A denotes >20-fold)”.
For `Cc1cc([C@@H](C)Nc2ccccc2-n2nn[nH]c2=O)c2nc(N3CCOCC3)cc(=O)n2c1` [Compound 343], the IC50 [1] was > 2000 nM and the “T47D pAKT S473 HTRF IC50 (H1047R): T47D (H1047R) selectivity over SKBR3 (WT)” value [2] was “C (C denotes ≤5-fold)”.
`Cc1cc(C(C)N(C)c2ccccc2S(N)(=O)=O)c2nc(N3Cc4ccccc4C3)cc(=O)n2c1` (stereo not drawn) [Compound 836] was tested, and the IC50 (EGF stimulation) was > 2000 nM and the “T47D pAKT S473 HTRF IC50 (H1047R): T47D (H1047R) selectivity over SKBR3 (WT)” value [3] was “C (C denotes ≤5-fold)”.
`Cc1cc([C@H](C)Nc2ccccc2C(=O)O)c2nc(C3CCN(S(N)(=O)=O)CC3)cc(=O)n2c1` [Compound 756] was tested, and the IC50 (EGF stimulation) was > 2000 nM and the “T47D pAKT S473 HTRF IC50 (H1047R): T47D (H1047R) selectivity over SKBR3 (WT)” value [3] was “C (C denotes ≤5-fold)”.
In the case of `CCc1c(-c2ccc3c(c2)c(C)cn3C)nc2c([C@H](C)Nc3ccccc3C(=O)O)cc(C)cn2c1=O` [Compound 1043], the “T47D pAKT S473 HTRF IC50 (H1047R): T47D (H1047R) selectivity over SKBR3 (WT)” value [3] is reported as “B (B denotes 20-fold≥value>5-fold)”.
In the case of `Cc1cc([C@@H](C)Nc2ccccc2C(=O)O)c2nc(-c3ccc4c(c(N)nn4C)c3C)cc(=O)n2c1` [Compound 702], the IC50 (EGF stimulation) is reported as 500 to 2000 nM and the “T47D pAKT S473 HTRF IC50 (H1047R): T47D (H1047R) selectivity over SKBR3 (WT)” value [3] is reported as “B (B denotes 20-fold≥value>5-fold)”.
`Cc1cc([C@H](C)Nc2ccccc2-c2ccnnc2)c2nc(-c3cccnc3)c(C)c(=O)n2c1` [Compound 1145] was tested, and the IC50 (EGF stimulation) was 100 to 500 nM and the “T47D pAKT S473 HTRF IC50 (H1047R): T47D (H1047R) selectivity over SKBR3 (WT)” value [2] was “A (A denotes >20-fold)”.
For `Cc1cc([C@H](C)Nc2ccccc2C(=O)O)c2nc(-c3ccc4c(c(N)nn4C)c3C)cc(=O)n2c1` [Compound 703], the IC50 (EGF stimulation) was > 2000 nM and the “T47D pAKT S473 HTRF IC50 (H1047R): T47D (H1047R) selectivity over SKBR3 (WT)” value [3] was “C (C denotes ≤5-fold)”.
In the case of `Cc1cc([C@H](C)Nc2ccccc2C(=O)O)c2nc(-c3ccc4nc(NC(=O)C5CC5)nn4c3)cc(=O)n2c1` [Compound 521], the IC50 [1] is reported as > 2000 nM and the “T47D pAKT S473 HTRF IC50 (H1047R): T47D (H1047R) selectivity over SKBR3 (WT)” value [2] is reported as “C (C denotes ≤5-fold)”.
`Cc1cc(C(C)Nc2ccccc2C(=O)O)c2nc(-c3ccc4c(c3)c(C)nn4C)cc(=O)n2c1` (stereo not drawn) [Compound 695] was tested, and the “T47D pAKT S473 HTRF IC50 (H1047R): T47D (H1047R) selectivity over SKBR3 (WT)” value [3] was “A (A denotes >20-fold)”.
In the case of `Cc1cc([C@@H](C)Nc2ccccc2C(=O)O)c2nc(-c3ccc4ccnn4c3)c(C)c(=O)n2c1` [Compound 1298], the IC50 (EGF stimulation) is reported as < 100 nM and the “T47D pAKT S473 HTRF IC50 (H1047R): T47D (H1047R) selectivity over SKBR3 (WT)” value [2] is reported as “A (A denotes >20-fold)”.
With `Cc1cc(C(C)Nc2cccc(C#N)c2C(=O)O)c2nc(-c3ccc4c(c3)c(C)nn4C)cc(=O)n2c1` (stereo not drawn) [Compound 981] the IC50 (EGF stimulation) was > 2000 nM and the “T47D pAKT S473 HTRF IC50 (H1047R): T47D (H1047R) selectivity over SKBR3 (WT)” value [3] was “C (C denotes ≤5-fold)”.
With `Cc1cc(C(C)Nc2ccccc2S(N)(=O)=O)c2nc(-c3cc(C)c4oc(=O)[nH]c4c3)cc(=O)n2c1` (stereo not drawn) [Compound 570] the IC50 [1] was 100 to 500 nM and the “T47D pAKT S473 HTRF IC50 (H1047R): T47D (H1047R) selectivity over SKBR3 (WT)” value [2] was “A (A denotes >20-fold)”.
With `Cc1cc([C@H](C)Nc2ccccc2C(=O)O)c2nc(-c3ccc4c(c3)c(C)cn4C)c(C)c(=O)n2c1` [Compound 903] the IC50 (EGF stimulation) was 500 to 2000 nM and the “T47D pAKT S473 HTRF IC50 (H1047R): T47D (H1047R) selectivity over SKBR3 (WT)” value [3] was “B (B denotes 20-fold≥value>5-fold)”.
In the case of `Cc1cc([C@@H](C)Nc2ccccc2C(=O)O)c2nc(-c3cc4c(N)nn(C)c4cc3C)c(C)c(=O)n2c1` [Compound 732], the “T47D pAKT S473 HTRF IC50 (H1047R): T47D (H1047R) selectivity over SKBR3 (WT)” value [3] is reported as “C (C denotes ≤5-fold)”.
In the case of `Cc1cc(C(C)Nc2ccccc2C(=O)O)c2nc(-c3ccc4[nH]nc(C)c4c3)cc(=O)n2c1` (stereo not drawn) [Compound 348], the “T47D pAKT S473 HTRF IC50 (H1047R): T47D (H1047R) selectivity over SKBR3 (WT)” value [2] is reported as “A (A denotes >20-fold)”.
`Cc1cc(C(C)Nc2ccccc2C(=O)O)c2nc(-c3cnc(C4CCOCC4)nc3)c(C)c(=O)n2c1` (stereo not drawn) [Compound 1272] was tested, and the IC50 (EGF stimulation) was 100 to 500 nM and the “T47D pAKT S473 HTRF IC50 (H1047R): T47D (H1047R) selectivity over SKBR3 (WT)” value [2] was “A (A denotes >20-fold)”.
For `Cc1cc([C@H](C)Nc2ccccc2C(=O)O)c2nc(N3C[C@@H](C)O[C@@H](C)C3)cc(=O)n2c1` [Compound 320], the IC50 [1] was > 2000 nM and the “T47D pAKT S473 HTRF IC50 (H1047R): T47D (H1047R) selectivity over SKBR3 (WT)” value [2] was “C (C denotes ≤5-fold)”.
With `Cc1cc(C(C)Nc2ccc(F)cc2C(=O)O)c2nc(N3CCOCC3)cc(=O)n2c1` (stereo not drawn) [Compound 288] the IC50 [1] was 500 to 2000 nM and the “T47D pAKT S473 HTRF IC50 (H1047R): T47D (H1047R) selectivity over SKBR3 (WT)” value [2] was “B (B denotes 20-fold≥value>5-fold)”.
For `Cc1cc([C@H](C)Nc2ccccc2C(N)=O)c2nc(-c3cnc(C)c(Cl)c3)c(C)c(=O)n2c1` [Compound 1136], the IC50 (EGF stimulation) was > 2000 nM and the “T47D pAKT S473 HTRF IC50 (H1047R): T47D (H1047R) selectivity over SKBR3 (WT)” value [2] was “C (C denotes ≤5-fold)”.
In the case of `Cc1cc([C@@H](C)Nc2ccccc2S(N)(=O)=O)c2nc(-c3ccc4c(c3)c(C)nn4C3CC3)c(C)c(=O)n2c1` [Compound 961], the IC50 (EGF stimulation) is reported as 100 to 500 nM and the “T47D pAKT S473 HTRF IC50 (H1047R): T47D (H1047R) selectivity over SKBR3 (WT)” value [3] is reported as “A (A denotes >20-fold)”.
